Laboratory results published in article PMC9639148 (Journal for Immunotherapy of Cancer, 2022).

Tests used:
APOBEC3B [1] = target: T1, APOBEC3B (Homo sapiens, UniProt Q9UH17); assay: Fluorescence-based ssDNA cytosine deamination assay; format: biochemical; conditions: IC50, dose-dependent assay, figure 2D, E
APOBEC3B [2] = target: T1, APOBEC3B; assay: Microscale thermophoresis; format: binding
KYSE150-APOBEC3B cells = KYSE150-APOBEC3B cells (Homo sapiens, UniProt Q9UH17); assay: MST within KYSE150-APOBEC3B cells; format: binding
Chain of KYSE150-APOBEC3B cells (Q9UH17 whole entry): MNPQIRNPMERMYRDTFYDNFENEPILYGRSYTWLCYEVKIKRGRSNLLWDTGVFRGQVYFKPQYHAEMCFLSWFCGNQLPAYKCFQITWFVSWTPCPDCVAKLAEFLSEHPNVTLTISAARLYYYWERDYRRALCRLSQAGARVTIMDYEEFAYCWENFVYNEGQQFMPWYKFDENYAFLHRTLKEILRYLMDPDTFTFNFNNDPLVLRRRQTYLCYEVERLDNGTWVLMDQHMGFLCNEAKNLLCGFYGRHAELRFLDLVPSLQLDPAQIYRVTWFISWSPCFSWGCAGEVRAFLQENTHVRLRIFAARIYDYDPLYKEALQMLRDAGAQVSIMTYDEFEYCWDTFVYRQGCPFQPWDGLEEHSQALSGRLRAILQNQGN

APOBEC3B [3] = target: T1, APOBEC3B; format: biochemical
APOBEC3A [4] = target: T2, APOBEC3A (Homo sapiens, UniProt P31941); assay: MST, APOBEC3A protein; format: binding
T2 sequence (P31941 whole entry): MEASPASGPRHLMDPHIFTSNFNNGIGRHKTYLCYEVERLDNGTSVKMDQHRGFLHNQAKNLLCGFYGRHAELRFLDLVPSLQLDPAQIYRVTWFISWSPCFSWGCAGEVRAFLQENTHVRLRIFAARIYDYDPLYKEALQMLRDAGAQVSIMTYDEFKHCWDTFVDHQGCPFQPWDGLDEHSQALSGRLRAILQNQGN

APOBEC3G [5] = target: T3, APOBEC3G (Homo sapiens, UniProt Q9HC16); assay: MST, APOBEC3G protein; format: binding
T3 sequence (Q9HC16 whole entry): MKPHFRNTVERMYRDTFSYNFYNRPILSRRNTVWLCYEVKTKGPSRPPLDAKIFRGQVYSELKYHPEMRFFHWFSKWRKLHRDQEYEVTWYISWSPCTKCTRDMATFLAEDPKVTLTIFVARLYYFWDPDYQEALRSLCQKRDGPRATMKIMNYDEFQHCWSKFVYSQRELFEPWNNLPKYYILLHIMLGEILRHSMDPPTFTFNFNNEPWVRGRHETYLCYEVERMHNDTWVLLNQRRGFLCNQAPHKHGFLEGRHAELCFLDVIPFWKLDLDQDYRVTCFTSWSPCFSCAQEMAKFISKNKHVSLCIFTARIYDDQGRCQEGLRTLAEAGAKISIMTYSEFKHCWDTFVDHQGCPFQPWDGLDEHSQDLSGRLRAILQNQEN

APOBEC3A [6] = target: T2, APOBEC3A; assay: biochemical; conditions: read-out: inhibition rate of APOBEC3A deaminase activity
APOBEC3G [7] = target: T3, APOBEC3G; assay: biochemical; conditions: read-out: inhibition rate of APOBEC3G deaminase activity
[8] = test system: APOBEC3B overexpressed E. coli; assay: Bacterial resequencing; format: cell-based, Escherichia coli; conditions: 2 µM for 3 days
KYSE70 cells [9] = assay: Cell viability assay; format: cell-based, human; conditions: 0.01-100 μM, MTT
APOBEC3B [10] = assay: qRT-PCR of APOBEC3B mRNA in KYSE70 cells; format: cell-based, human; conditions: 48 hours
4-NQO-induced ESCC = assay: 4-NQO-induced spontaneous ESCC mouse model; format: in vivo
IFN-γ^+CD8^+ T cells [11] = assay: Ex vivo intracellular cytokine staining, 4-NQO-induced ESCC mice; format: in vivo, mouse; conditions: 0.5 mg/kg each i.p.
[12] = In vivo toxicity analysis, 4-NQO-induced ESCC mice; parameters: species or system mouse
HET-1A cells = assay: Cell viability assay; format: cell-based, human; conditions: MTT, 24, 48 and 72 hours
APOBEC3 = assay: Mouse whole exome sequencing of esophagus tissues; format: in vivo
PD-L1 in KYSE70 cell = assay: PD-L1 expression by flow cytometry, KYSE70; format: cell-based, human; conditions: 10 µM and 100 µM, 48 hours
PD-L1 in RKO cell = assay: PD-L1 expression by flow cytometry, RKO; format: cell-based, human; conditions: 48 hours
[13] = test system: AOM/DSS-induced colon cancer; assay: AOM/DSS-induced spontaneous colon cancer mouse model; format: in vivo
IFN-γ^+CD8^+ T cells [14] = assay: Ex vivo intracellular cytokine staining, AOM/DSS-induced colon cancer mice; format: in vivo, mouse; conditions: 0.5 mg/kg each i.p.
[15] = In vivo toxicity analysis, AOM/DSS-induced colon cancer mice; parameters: species or system mouse; conditions: 0.5 mg/kg each i.p.
CD8^+ T cells [16] = assay: Activated human PBMCs directly treated; format: cell-based; conditions: 10 µM for 3 days
CD8^+ T cells [17] = assay: Activated PBMCs cocultured with KYSE70 cells; format: cell-based, human; conditions: 10 µM, coculture with KYSE70 cells
CD8^+ T cells [18] = assay: Coculture assay: PBMCs cultured in supernatants of KYSE70 cells; format: cell-based, human; conditions: supernatants of KYSE70 cells pretreated with 10 µM for 48 hours, PBMCs 3 days
CD8+ T cells = assay: T cell migration assay; format: cell-based, human; conditions: supernatant of KYSE70 pretreated with 10 μM for 48 hours
KYSE70 cells [19] = assay: Transcriptome sequencing of KYSE70 cells; format: cell-based, human; conditions: 10 µM for 48 hours
IL-7 and IL-15 = assay: qRT-PCR of IL-7 and IL-15 in KYSE70 cells; format: cell-based, human; conditions: 10 µM
IL-7 = assay: ELISA, IL-7 in KYSE70 supernatants; format: cell-based, human; conditions: 10 µM, 48 hours, vs vehicle supernatants; IL-7 expression level was too low
IL-15 = assay: ELISA, IL-15 in KYSE70 supernatants; format: cell-based, human; conditions: 10 µM, 48 hours, vs vehicle supernatants
[20] = Thyroid function in vivo, naive C57BL/6J mice; parameters: species or system mouse; conditions: 0.5, 2 and 8 mg/kg i.p. every 2 days for 2 weeks, vs NS group
[21] = 0.5, 2 and 8 mg/kg i.p. every 2 days for 2 weeks
KYSE150-vector cells = assay: MST within KYSE150-vector cells
[22] = both low (0.5 mg/kg) and high dose (2 mg/kg) i.p.

T1 sequence (Q9UH17 whole entry): as the sequence (Q9UH17 whole entry) above

SMILES: N[C@@H](Cc1cc(I)c(O)c(I)c1)C(=O)O [SMC247, 3,5-diiodotyrosine]
- IC50 (APOBEC3B [1]): 1690 nM
- Kd (APOBEC3B [2]): 65 nM
- Kd (KYSE150-APOBEC3B cells): 6140 ± 7930 nM
- deaminase activity of APOBEC3B (APOBEC3B [3]): significantly inhibited
- product amount (APOBEC3B [3]): reduced in a dose-dependent manner
- binding to APOBEC3A (APOBEC3A [4]): weakly bound
- binding to APOBEC3G (APOBEC3G [5]): weakly bound
- inhibition at 100 µM (APOBEC3A [6]): < 50%
- inhibition at 100 µM (APOBEC3G [7]): < 50%
- C>T transversion driven by APOBEC3B in E. coli genome [8]: significant reduced
- proliferation of KYSE70 cells (KYSE70 cells [9]): could not inhibit the proliferation
- expression of APOBEC3B (APOBEC3B [10]): down-regulated
- number and length of ESCC tumor tissue (4-NQO-induced ESCC; 0.5 mg/kg or 2 mg/kg i.p. every 2 days for 2 weeks, vs NS): significantly reduced
- body weight (4-NQO-induced ESCC; [22]): slow down the loss trend of body weight
- overall survival of mice (4-NQO-induced ESCC; [22]): significantly prolong
- H&E of esophagus tissues (4-NQO-induced ESCC; combination study): effectively alleviated
- number and length of ESCC tumor tissues (4-NQO-induced ESCC; combination study, 0.5 mg/kg each i.p. every 2 days for 2 weeks): significantly reduced
- proportions of IFN-γ^+CD8^+ T cells in both spleen and lymph node (IFN-γ^+CD8^+ T cells [11]): increased
- AST and ALT in serum ([12]; 0.5 mg/kg vs NS group): no significant differences
- H&E staining of main viscera ([12]; heart, liver, spleen, lung, kidney): no obvious toxic effects
- viability of HET-1A cells (HET-1A cells): did not affect the viability
- C>A mutation type (APOBEC3; 0.5 mg/kg i.p.): reduction
- contribution of APOBEC activity related signatures (SBS2 and SBS13) (APOBEC3; 0.5 mg/kg i.p.): weakened
- mutation counts of C>T and C>G (APOBEC3; 0.5 mg/kg i.p.): reduced
- number of mutations at exome levels (APOBEC3; 0.5 mg/kg i.p. every 2 days for 2 weeks, vs NS): significantly reduced
- expression of PD-L1 (PD-L1 in KYSE70 cell): up-regulate
- expression of PD-L1 (PD-L1 in RKO cell): up-regulate
- H&E of colon tissue ([13]; 0.5 mg/kg each i.p.): the colonic mucosa was intact and the glandular cells were basically arranged in order
- disease activity index (DAI) ([13]; 0.5 mg/kg each i.p.): decreased
- length of colon ([13]; 0.5 mg/kg each i.p.): without changing the length of colon basically
- number and size of tumors in colonic epithelial tissues ([13]; 0.5 mg/kg each i.p.): significantly reduced
- body weight loss ([13]; 0.5 mg/kg each i.p. every 2 days for 9 weeks): significantly slow down the trend of body weight loss
- enteritis phenomenon ([13]; mouse, in vivo): significantly relieved
- proportions of IFN-γ^+CD8^+ T cells in both spleen and lymph node (IFN-γ^+CD8^+ T cells [14]): increased
- toxic effects (H&E of organs, AST and ALT) [15]: no obvious toxic effects
- function of CD8^+ T cells in the absence of tumor cells (CD8^+ T cells [16]): did not directly affect the function of CD8^+ T cells
- proliferation of CD8^+ T cells and proportion of IFN-γ^+CD8^+ T cells (CD8^+ T cells [17]): promoted
- promotion effect on CD8^+ T cells (CD8^+ T cells [18]): still existed
- migration of CD8^+ T cells (CD8+ T cells): could not promote the migration
- IL-7 and IL-15 expression (transcriptome sequencing) (KYSE70 cells [19]): significantly upregulated
- IL-7 and IL-15 expression levels (qRT-PCR) (IL-7 and IL-15): consistent with the above sequencing results
- secretion level of IL-7 (IL-7): significantly greater
- secretion level of IL-15 (IL-15): significantly greater
- thyroid-stimulating hormone, free triiodothyronine (fT3) and free thyroxine (fT4) [20]: no significant difference
- blood routine indexes (WBC, HGB, PLT, RBC) and blood biochemical (AST and ALT) indexes [21]: within the normal range
- affinity to KYSE150-vector cells (KYSE150-vector cells): no affinity
